Patent US8268827B2, “Pyridazinone derivatives as PARP inhibitors” (Istituto di Ricerche di Biologia Molecolare P. Angeletti …, priority 2007, dated 2012)
Where a name gives a salt, the structure may show the parent alone.

Tested on: BRCA-1 silenced HeLa cells (HeLa shBRCA1-GFP)
Test: Proliferation assay in BRCA-1 silenced HeLa cells
Format: cell-based
Settings: Homo sapiens; BRCA1 silenced HeLa cells, 168 hours; read-out: CC50 in the BRCA1 silenced HeLa cells
Outline: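 HeLa cells with lentiviral shRNA BRCA1 knockdown (>80%), compared with control-vector HeLa, seeded at 300 cells/well. Compound exposure lasted 168 h at 37° C. Viability was read as resazurin-to-resorufin fluorescence (ex 550/em 590 nm).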

SMILES | CC50
Cc1c(Cc2ccc(F)c(C(=O)N3CC(=O)N(C4COc5ccccc5C4)C(C)C3)c2)n[nH]c(=O)c1C (stereo not drawn) [Example 132, 6-(3-{[4-(3,4-Dihydro-2H-chromen-3-yl)-3-methyl-5-oxopiperazin-1-yl]carbonyl}-4-fluorobenzyl)-4,5-dimethylpyridazin-3(2H)-one trifluoroacetate] | < 50 nM
O=C(c1cc(Cc2cc(C(F)(F)F)c(=O)[nH]n2)ccc1F)N1CCN([C@H]2CCCOC2)C(=O)C1 [Example 153, 6-[4-fluoro-3-({3-oxo-4-[(3S)-tetrahydro-2H-pyran-3-yl]piperazin-1-yl}carbonyl)benzyl]-4-(trifluoromethyl)pyridazin-3(2H)-one] | 50 to 500 nM
O=C(c1cc(Cc2cc(C(F)(F)F)c(=O)[nH]n2)ccc1F)N1CCN([C@@H]2CCCOC2)C(=O)C1 [Example 154, 6-[4-fluoro-3-({3-oxo-4-[(3R)-tetrahydro-2H-pyran-3-yl]piperazin-1-yl}carbonyl)benzyl]-4-(trifluoromethyl)pyridazin-3(2H)-one] | < 5000 nM
CCN1C(=O)CN(C(=O)c2cc(Cc3n[nH]c(=O)c(C(F)(F)F)c3C)ccc2F)C[C@@H]1C [Example 155, 6-(3-{[(3S)-4-ethyl-3-methyl-5-oxopiperazin-1-yl]carbonyl}-4-fluorobenzyl)-5-methyl-4-(trifluoromethyl)pyridazin-3(2H)-one] | < 50 nM
CCN1C(=O)CN(C(=O)c2cc(Cc3n[nH]c(=O)c(C(F)(F)F)c3C)ccc2F)C[C@H]1C [Example 156, 6-(3-{[(3R)-4-ethyl-3-methyl-5-oxopiperazin-1-yl]carbonyl}-4-fluorobenzyl)-5-methyl-4-(trifluoromethyl)pyridazin-3(2H)-one] | < 50 nM
Cc1c(Cc2ccc(F)c(C(=O)N3CC(=O)N([C@@H]4CCOC4)[C@@H](C)C3)c2)n[nH]c(=O)c1C [Example 157, 6-[4-fluoro-3-({(3S)-3-methyl-5-oxo-4-[(3R)-tetrahydrofuran-3-yl]piperazin-1-yl}carbonyl)benzyl]-4,5-dimethylpyridazin-3(2H)-one] | 50 to 500 nM
Cc1c(Cc2ccc(F)c(C(=O)N3CC(=O)N([C@@H]4CCOC4)[C@H](C)C3)c2)n[nH]c(=O)c1C [Example 158, 6-[4-fluoro-3-({(3R)-3-methyl-5-oxo-4-[(3R)-tetrahydrofuran-3-yl]piperazin-1-yl}carbonyl)benzyl]-4,5-dimethylpyridazin-3(2H)-one] | 50 to 500 nM
CCc1cc(Cc2ccc(F)c(C(=O)N3CCN([C@H]4CCc5ccccc5C4)C(=O)C3)c2)n[nH]c1=O [Example 159, 4-ethyl-6-[4-fluoro-3-({3-oxo-4-[(2S)-1,2,3,4-tetrahydronaphthalen-2-yl]piperazin-1-yl}carbonyl)benzyl]pyridazin-3(2H)-one] | < 50 nM
CCc1cc(Cc2ccc(F)c(C(=O)N3CCN([C@@H]4CCc5ccccc5C4)C(=O)C3)c2)n[nH]c1=O [Example 160, 4-ethyl-6-[4-fluoro-3-({3-oxo-4-[(2R)-1,2,3,4-tetrahydronaphthalen-2-yl]piperazin-1-yl}carbonyl)benzyl]pyridazin-3(2H)-one] | 50 to 500 nM
CC[C@H](C)N1CCN(C(=O)c2cc(Cc3n[nH]c(=O)c(C)c3C)ccc2F)CC1=O [Example 161, 6-[4-Fluoro-3-({4-[(1S)-1-methylpropyl]-3-oxopiperazin-1-yl}carbonyl)benzyl]-4,5-dimethylpyridazin-3(2H)-one] | < 50 nM
COCC(C)N1CCN(C(=O)c2cc(Cc3n[nH]c(=O)c(C)c3C)ccc2F)CC1=O (stereo not drawn) [Example 162, 6-(4-Fluoro-3-{[4-(2-methoxy-1-methylethyl)-3-oxopiperazin-1-yl]carbonyl}benzyl)-4,5-dimethylpyridazin-3(2H)-one] | < 50 nM
Cc1c(Cc2ccc(F)c(C(=O)N3CC(=O)N(C4CCC4)C(C)C3)c2)n[nH]c(=O)c1C (stereo not drawn) [Example 163, 6-{3-[(4-Cyclobutyl-3-methyl-5-oxopiperazin-1-yl)carbonyl]-4-fluorobenzyl}-4,5-dimethylpyridazin-3(2H)-one] | < 50 nM
